ChEMBL document CHEMBL4808169, “Discovery of Potent and Fast-Acting Antimalarial Bis-1,2,4-triazines” (J Med Chem, 2021)
pEC50, pIC50: −log10 of the molar value. Activity calls are given as the source filed them. No cut-off for these calls is given here.

Legend:
[1] = Intrinsic clearance in human hepatocytes assessed per million cells by UPLC-MS analysis; format: ADME, cell-based, Hepatocyte; conditions: read-out: CLH
Cytochrome P450 2D6 = Cytochrome P450 2D6 (Homo sapiens, UniProt P10635); test: Inhibition of CYP2D6 in human liver microsomes assessed as reduction in […] activity by . high-pressure liquid chromatography-tandem mass spectrometry; format: ADME
Cytochrome P450 3A4 = Cytochrome P450 3A4 (Homo sapiens, UniProt P08684); test: Inhibition of CYP3A4 in human liver microsomes assessed as reduction in midazolam 1-hydroxylase activity by . high-pressure liquid chromatography-tandem mass spectrometry; format: ADME
[2] = Drug metabolism in human liver microsomes assessed as oxygenated metabolite M+16(1) formation by LC-MS/MS(CID) analysis; format: ADME, Microsome
[3] = Drug metabolism in human liver microsomes assessed as oxygenated metabolite M+16(2) formation by LC-MS/MS(CID) analysis; format: ADME, Microsome
[4] = Drug metabolism in rat liver microsomes assessed as N-methyl-2-(3'-propoxy-5,5'-bi(1,2,4-triazin)-3-yloxy)ethanamine formation by LC-MS/MS(CID) analysis; format: ADME, Microsome
[5] = Drug metabolism in rat liver microsomes assessed as formation of cleavage product M-69 in presence of NADPH by LC-MS/MS(CID) analysis; format: ADME, Microsome
Plasmodium falciparum [6] = test: Bactericidal activity against Plasmodium falciparum 3D7A at 10 times IC50; format: functional, organism-based
Plasmodium falciparum [7] = test: Antiplasmodial activity against Plasmodium falciparum NF54 by 3H-incorporation growth inhibition assay; format: functional, organism-based
Plasmodium [8] = test: Antimalarial activity against Plasmodium assessed as transmission blocking potential by measuring reduction in male gamete formation by dual gamete formation assay; format: functional, organism-based
Plasmodium [9] = test: Antimalarial activity against Plasmodium assessed as transmission blocking potential by measuring reduction in female gamete formation by dual gamete formation assay; format: functional, organism-based
[10] = Tmax in Swiss mouse at 2.8 mg/kg, po measured up to 24 hrs by LC-MS analysis; format: ADME, organism-based; conditions: in vivo
[11] = AUC (0 to infinity) in Swiss mouse plasma at 2.7 mg/kg, iv measured up to 24 hrs; format: ADME, organism-based; set-up: route intravenous, dose 2.7 mg/kg, time <=24
[12] = Oral bioavailability in Swiss mouse at 2.8 mg/kg measured up to 24 hrs; format: ADME, organism-based; conditions: in vivo
[13] = Oral bioavailability in Swiss mouse at 27 mg/kg measured up to 24 hrs; format: ADME, organism-based; conditions: in vivo
[14] = Apparent half life in Sprague-Dawley rat at 3 mg/kg administered as iv infusion for 10 mins measured up to 24 hrs by LC-MS analysis; format: ADME, organism-based; conditions: in vivo
[15] = Cmax in Sprague-Dawley rat plasma at 10 mg/kg, po administered via gavage measured at 0.25 to 2.5 hrs by LC-MS analysis; format: ADME, organism-based; set-up: route oral, time upper 2.5 hrs, dose 10 mg/kg, time lower 0.25 hrs
[16] = Apparent oral availability in Sprague-Dawley rat at 10 mg/kg measured up to 24 hrs by LC-MS analysis; format: ADME, organism-based; conditions: in vivo, read-out: Fapp
[17] = Drug metabolism in Sprague-Dawley rat urine assessed as oxygenated metabolite M+16(2) formation at 10 mg/kg, po by high-resolution mass spectrometry; format: ADME, organism-based; conditions: in vivo
[18] = Drug metabolism in Sprague-Dawley rat urine assessed as oxygenated metabolite N-methyl-2-(3'-propoxy-5,5'-bi(1,2,4-triazin)-3-yloxy)ethanamine oxide formation at 10 mg/kg, po by high-resolution mass spectrometry; format: ADME, organism-based; conditions: in vivo
[19] = Drug metabolism in Sprague-Dawley rat urine assessed as oxygenated metabolite N-methyl-2-(3'-propoxy-5,5'-bi(1,2,4-triazin)-3-yloxy)ethanamine oxide formation at 3 mg/kg, iv by high-resolution mass spectrometry; format: ADME, organism-based; conditions: in vivo
[20] = Drug metabolism in Sprague-Dawley rat urine assessed as N-methyl-2-(3'-propoxy-5,5'-bi(1,2,4-triazin)-3-yloxy)ethanamine formation at 10 mg/kg, po by high-resolution mass spectrometry; format: ADME, organism-based; conditions: in vivo
[21] = Drug metabolism in Sprague-Dawley rat urine assessed as M-32 metabolite formation at 3 mg/kg, iv by high-resolution mass spectrometry; format: ADME, organism-based; conditions: in vivo
[22] = Drug metabolism in Sprague-Dawley rat feces assessed as oxygenated metabolite M+16(2) formation at 10 mg/kg, po by high-resolution mass spectrometry; format: ADME, organism-based; conditions: in vivo
[23] = Drug metabolism in Sprague-Dawley rat feces assessed as oxygenated metabolite M+16(2) formation at 3 mg/kg, iv by high-resolution mass spectrometry; format: ADME, organism-based; conditions: in vivo
[24] = Drug metabolism in Sprague-Dawley rat feces assessed as oxygenated metabolite N-methyl-2-(3'-propoxy-5,5'-bi(1,2,4-triazin)-3-yloxy)ethanamine oxide formation at 10 mg/kg, po by high-resolution mass spectrometry; format: ADME, organism-based; conditions: in vivo
[25] = Drug metabolism in Sprague-Dawley rat feces assessed as oxygenated metabolite N-methyl-2-(3'-propoxy-5,5'-bi(1,2,4-triazin)-3-yloxy)ethanamine oxide formation at 3 mg/kg, iv by high-resolution mass spectrometry; format: ADME, organism-based; conditions: in vivo
[26] = Drug metabolism in Sprague-Dawley rat feces assessed as N-methyl-2-(3'-propoxy-5,5'-bi(1,2,4-triazin)-3-yloxy)ethanamine formation at 10 mg/kg, po by high-resolution mass spectrometry; format: ADME, organism-based; conditions: in vivo
[27] = Drug recovery in bile cannulated Sprague-Dawley rat bile at 3 mg/kg, iv measured up to 4 hrs by LC-MS analysis; format: ADME, organism-based; conditions: read-out: Drug recovery
[28] = Drug concentration in blood of NOD-SCID 1L2Rgamma mouse infected with Plasmodium falciparum 3D70087/N9 at 50 mg/kg, po measured after 6 hrs by LC-MS/MS analysis; format: ADME, organism-based; conditions: read-out: Drug uptake
[29] = Drug metabolism in rat liver microsomes assessed as oxygenated metabolite M+16(2) formation by LC-MS/MS(CID) analysis; format: ADME, Microsome
[30] = Drug metabolism in rat liver microsomes assessed as oxygenated metabolite N-methyl-2-(3'-propoxy-5,5'-bi(1,2,4-triazin)-3-yloxy)ethanamine oxide formation by LC-MS/MS(CID) analysis; format: ADME, Microsome
[31] = Drug metabolism in mouse hepatocytes assessed as oxygenated metabolite M+16(2) formation by LC-MS/MS(CID) analysis; format: ADME, cell-based, Hepatocyte
[32] = Drug metabolism in rat hepatocytes assessed as oxygenated metabolite M+16(2) formation by LC-MS/MS(CID) analysis; format: ADME, cell-based, Hepatocyte
[33] = Drug metabolism in rat hepatocytes assessed as 3'-propoxy-5,5'-bi(1,2,4-triazin)-3-ol formation by LC-MS/MS(CID) analysis; format: ADME, cell-based, Hepatocyte
[34] = Drug metabolism in rat hepatocytes assessed as glucuronides/sulfates metabolite formation by LC-MS/MS(CID) analysis; format: ADME, cell-based, Hepatocyte
Plasmodium falciparum [35] = test: microbe, parasite or virus in culture; conditions: 3D7, 72 h
Description: Antimalarial activity against Plasmodium falciparum 3D7 infected in human red blood cells after 72 hrs by DAPI-staining based assay

[36] = Apparent half life in Swiss mouse at 27 mg/kg, po measured up to 24 hrs by LC-MS analysis; conditions: in vivo, read-out: t1/2(app) (converted)
[37] = AUC (0 to infinity) in Swiss mouse plasma at 27 mg/kg, po measured up to 24 hrs by LC-MS analysis
[38] = AUC (0 to infinity) in Swiss mouse plasma at 2.8 mg/kg, po measured up to 24 hrs by LC-MS analysis

Cytochrome P450 2D6, sequence (P10635 whole entry): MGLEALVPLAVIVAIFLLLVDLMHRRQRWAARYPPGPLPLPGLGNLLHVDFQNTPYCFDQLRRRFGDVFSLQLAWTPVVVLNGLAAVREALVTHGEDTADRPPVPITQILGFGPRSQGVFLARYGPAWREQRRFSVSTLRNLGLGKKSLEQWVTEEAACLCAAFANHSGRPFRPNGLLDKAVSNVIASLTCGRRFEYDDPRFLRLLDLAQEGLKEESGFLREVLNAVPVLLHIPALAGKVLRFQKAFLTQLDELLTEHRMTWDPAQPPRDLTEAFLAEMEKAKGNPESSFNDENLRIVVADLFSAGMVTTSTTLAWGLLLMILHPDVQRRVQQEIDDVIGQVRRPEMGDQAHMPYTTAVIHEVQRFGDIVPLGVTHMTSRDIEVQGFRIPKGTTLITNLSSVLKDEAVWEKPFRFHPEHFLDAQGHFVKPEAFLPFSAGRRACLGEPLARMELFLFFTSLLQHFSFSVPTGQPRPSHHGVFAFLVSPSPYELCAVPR
Cytochrome P450 3A4, sequence (P08684 whole entry): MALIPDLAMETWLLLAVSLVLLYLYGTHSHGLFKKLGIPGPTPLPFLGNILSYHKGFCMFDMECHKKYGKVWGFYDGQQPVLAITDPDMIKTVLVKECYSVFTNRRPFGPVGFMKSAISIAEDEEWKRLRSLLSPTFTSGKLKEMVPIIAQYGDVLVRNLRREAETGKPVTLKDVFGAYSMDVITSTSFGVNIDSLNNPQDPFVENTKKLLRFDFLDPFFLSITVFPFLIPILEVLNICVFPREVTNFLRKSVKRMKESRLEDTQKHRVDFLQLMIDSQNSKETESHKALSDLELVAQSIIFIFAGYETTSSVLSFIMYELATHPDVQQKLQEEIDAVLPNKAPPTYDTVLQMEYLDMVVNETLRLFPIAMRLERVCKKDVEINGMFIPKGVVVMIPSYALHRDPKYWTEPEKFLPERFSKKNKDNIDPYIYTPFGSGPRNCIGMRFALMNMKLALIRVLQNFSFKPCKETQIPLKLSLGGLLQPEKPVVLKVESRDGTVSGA

## CCCOc1nncc(-c2cnnc(OCCN(C)C)n2)n1
[1]
  hepatocyte CLint: 3.6 µL/min/1e6 cells
Cytochrome P450 2D6
  pIC50: < 4.70
Cytochrome P450 3A4
  pIC50: < 4.70
[2]
  Drug metabolism: Metabolite_Detected
[3]
  Drug metabolism: Metabolite_Detected
[4]
  Drug metabolism: Metabolite_Detected
[5]
  Drug metabolism: Metabolite_Detected
Plasmodium falciparum [6]
  Activity: Active
Plasmodium falciparum [7]
  pIC50: 7.68
Plasmodium [8]
  pEC50: 5.92
Plasmodium [9]
  pEC50: 5.54
[10]
  Tmax: 30 min
[11]
  AUC(0-inf): 360 nM·h
[12]
  bioavailability: 10%
[13]
  bioavailability: 12%
[14]
  half-life: 23.4 min
[15]
  Cmax: 0.0894 µM
[16]
  bioavailability: 5%
[17]
  Drug metabolism: Metabolite_Detected
[18]
  Drug metabolism: Metabolite_Detected
[19]
  Drug metabolism: Metabolite_Detected
[20]
  Drug metabolism: Metabolite_Detected
[21]
  Drug metabolism: Metabolite_Detected
[22]
  Drug metabolism: Metabolite_Detected
[23]
  Drug metabolism: Metabolite_Detected
[24]
  Drug metabolism: Metabolite_Detected
[25]
  Drug metabolism: Metabolite_Detected
[26]
  Drug metabolism: Metabolite_Detected
[27]
  dose excreted at 4 h: 0.1%
[28]
  concentration at 6 h: 0.15 µg/mL
[29]
  Drug metabolism: Metabolite_Detected
[30]
  Drug metabolism: Metabolite_Detected
[31]
  Drug metabolism: Metabolite_Detected
[32]
  Drug metabolism: Metabolite_Detected
[33]
  Drug metabolism: Metabolite_Detected
[34]
  Drug metabolism: Metabolite_Notdetected
Plasmodium falciparum [35]
  pIC50: 7.51
[36]
  half-life: 180 min
[37]
  AUC(0-inf): 440 nM·h
[38]
  AUC(0-inf): 38 nM·h
